Results reported in PubChem BioAssay AID1963867 (Molecular Pharmacology Branch, DTP, NCI, 2024).

Test system: KRAS-mutant PDC tumor spheroid with HUVEC/MSC, viability
Experiment: Anticancer human tumor 327498-153-R-J2-PDC patient-derived uterine carcinosarcoma cell line growth inhibition [KRAS2]
Conditions: for viability, T/C: stronger effect = lower value
How it was run: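 KRAS-mutant tumor cells were grown as spheroids with HUVEC endothelial cells and human MSCs as stroma. Targeted agents were tested alone and with KRAS pathway inhibitors. Doses started at or near clinical Cmax, or 10 microM, descending half-log.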

[1] = curve of first compound, second compound 0.0316 µM
[2] = curve of first compound, second compound 0.1 µM
[3] = curve of first compound, second compound 0.316 µM
[4] = curve of first compound, second compound 1 µM
[5] = curve of first compound, second compound 3.16 µM
[6] = second compound 0.0316 µM, first compound 0.0316 µM
[7] = second compound 0.0316 µM, first compound 0.1 µM
[8] = second compound 0.0316 µM, first compound 0.316 µM
[9] = second compound 0.0316 µM, first compound 1 µM
[10] = second compound 0.0316 µM, first compound 3.16 µM
[11] = second compound 0.1 µM, first compound 0.01 µM
[12] = second compound 0.1 µM, first compound 0.0316 µM
[13] = second compound 0.1 µM, first compound 0.1 µM
[14] = second compound 0.1 µM, first compound 0.316 µM
[15] = second compound 0.1 µM, first compound 1 µM
[16] = second compound 0.1 µM, first compound 3.16 µM
[17] = second compound 0.316 µM, first compound 0.01 µM
[18] = second compound 0.316 µM, first compound 0.0316 µM
[19] = second compound 0.316 µM, first compound 0.1 µM
[20] = second compound 0.316 µM, first compound 0.316 µM
[21] = second compound 0.316 µM, first compound 1 µM
[22] = second compound 0.316 µM, first compound 3.16 µM
[23] = second compound 1 µM, first compound 0.01 µM
[24] = second compound 1 µM, first compound 0.0316 µM
[25] = second compound 1 µM, first compound 0.1 µM
[26] = second compound 1 µM, first compound 0.316 µM
[27] = second compound 1 µM, first compound 1 µM
[28] = second compound 1 µM, first compound 3.16 µM
[29] = second compound 3.16 µM, first compound 0.01 µM
[30] = second compound 3.16 µM, first compound 0.0316 µM
[31] = second compound 3.16 µM, first compound 0.1 µM
[32] = second compound 3.16 µM, first compound 0.316 µM
[33] = second compound 3.16 µM, first compound 1 µM
[34] = second compound 3.16 µM, first compound 3.16 µM
[35] = curve of first compound, second compound 10 µM
[36] = second compound 0.1 µM, first compound 10 µM
[37] = second compound 0.316 µM, first compound 10 µM
[38] = second compound 1 µM, first compound 10 µM
[39] = second compound 3.16 µM, first compound 10 µM
[40] = second compound 10 µM, first compound 0.0316 µM
[41] = second compound 10 µM, first compound 0.1 µM
[42] = second compound 10 µM, first compound 0.316 µM
[43] = second compound 10 µM, first compound 1 µM
[44] = second compound 10 µM, first compound 3.16 µM
[45] = second compound 10 µM, first compound 10 µM
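Note: spheroids exposed to agents for seven days before reading.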
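Throughout, for viability, T/C: 100% = DMSO vehicle wells so lower means fewer viable cells.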

SMILES	IC50 [2] [nM]	IC50 [3] [nM]	IC50 [4] [nM]	IC50 [5] [nM]	viability, T/C [12] [%]	viability, T/C [13] [%]	viability, T/C [14] [%]	viability, T/C [15] [%]	viability, T/C [16] [%]	viability, T/C [18] [%]	viability, T/C [19] [%]	viability, T/C [20] [%]	viability, T/C [21] [%]	viability, T/C [22] [%]	viability, T/C [24] [%]	viability, T/C [25] [%]	viability, T/C [26] [%]	viability, T/C [27] [%]	viability, T/C [28] [%]	viability, T/C [30] [%]	other results
CC(=O)OC12COC1CC(O)C1(C)C(=O)C(O)C3=C(C)C(OC(=O)C(O)C(NC(=O)OC(C)(C)C)c4ccccc4)CC(O)(C(OC(=O)c4ccccc4)C21)C3(C)C (stereo not given) + C=CC(=O)N1CCN(c2nc(OCC3CCCN3C)nc3c2CCN(c2cccc4cccc(C)c24)C3)CC1CC#N	< 10	< 10	< 10	< 10	4.17	3.96	4.52	6.93	8.74	4.31	4.23	4.71	5.82	7.76	3.43	3.95	3.86	5.54	4.84	6.27	IC50 [1]: < 10 nM; viability, T/C (second compound 0.0316 µM, first compound 0.01 µM): 6.75%; viability, T/C [6]: 5.33%; viability, T/C [7]: 6.51%; viability, T/C [8]: 6.19%; viability, T/C [9]: 7.48%; viability, T/C [10]: 10.1%; viability, T/C [11]: 5.53%; viability, T/C [17]: 4.9%; viability, T/C [23]: 4.4%; viability, T/C [29]: 7.35%; viability, T/C [31]: 5.84%; viability, T/C [32]: 6.15%; viability, T/C [33]: 7.24%; viability, T/C [34]: 10.6%
COC(=O)c1ccc2c(C(=Nc3ccc(N(C)C(=O)CN4CCN(C)CC4)cc3)c3ccccc3)c(O)[nH]c2c1 + COc1cc2nc(C)nc(NC(C)c3cc(N)cc(C(F)(F)F)c3)c2cc1OC1CCOC1	2160	490	648	585	94.6	77.2	72.2	83.7	33.9	73	65.1	57	40.4	29	62	59	64.3	42.9	25.5	69.5	IC50 [35]: 280 nM; viability, T/C [36]: 34.5%; viability, T/C [37]: 24.8%; viability, T/C [38]: 20.4%; viability, T/C [31]: 69.6%; viability, T/C [32]: 60.9%; viability, T/C [33]: 39.3%; viability, T/C [34]: 19.9%; viability, T/C [39]: 0.17%; viability, T/C [40]: 54.2%; viability, T/C [41]: 58.9%; viability, T/C [42]: 47.1%; viability, T/C [43]: 27.2%; viability, T/C [44]: 2.2%; viability, T/C [45]: 0.22%
CC1OCC2(CCN(c3cnc(Sc4ccnc(N)c4Cl)c(N)n3)CC2)C1N (stereo not given) + C=CC(=O)N1CCN(c2nc(OCC3CCCN3C)nc3c2CCN(c2cccc4cccc(C)c24)C3)CC1CC#N	< 31.6	< 31.6	< 31.6	< 31.6	41.2	32.9	24.9	21.2	16.2	40.6	30.9	24.4	20.4	16.4	33	24.2	23.1	19.3	14.3	0.14	IC50 [1]: < 31.6 nM; viability, T/C [6]: 44%; viability, T/C [7]: 40.3%; viability, T/C [8]: 23.9%; viability, T/C [9]: 22.6%; viability, T/C [10]: 19.6%; viability, T/C (second compound 0.0316 µM, first compound 10 µM): 14.9%; viability, T/C [36]: 16.4%; viability, T/C [37]: 15.3%; viability, T/C [38]: 13.5%; viability, T/C [31]: 0.15%; viability, T/C [32]: 0.14%; viability, T/C [33]: 0.13%; viability, T/C [34]: 0.15%; viability, T/C [39]: 0.24%
Cn1nccc1Nc1nccc(-c2cc3c(s2)C(C)(C)N(CCN2CCOCC2)C3=O)n1 + CC1OCC2(CCN(c3cnc(Sc4ccnc(N)c4Cl)c(N)n3)CC2)C1N	644	61.1	< 31.6	< 31.6	74.2	60.7	59.1	45.6	39.1	53.4	47	43.2	40.4	38.1	37.8	39.9	32.1	30.8	28.6	30.3	IC50 [35]: < 31.6 nM; viability, T/C [36]: 36.5%; viability, T/C [37]: 27.6%; viability, T/C [38]: 26.4%; viability, T/C [31]: 29.7%; viability, T/C [32]: 25.3%; viability, T/C [33]: 22.2%; viability, T/C [34]: 21.9%; viability, T/C [39]: 19.9%; viability, T/C [40]: 23.3%; viability, T/C [41]: 22.2%; viability, T/C [42]: 16.9%; viability, T/C [43]: 15.8%; viability, T/C [44]: 17.1%; viability, T/C [45]: 15.9%
CC1(C)CCC(CN2CCN(c3ccc(C(=O)NS(=O)(=O)c4ccc(NCC5CCOCC5)c([N+](=O)[O-])c4)c(Oc4cnc5[nH]ccc5c4)c3)CC2)=C(c2ccc(Cl)cc2)C1 + CC1OCC2(CCN(c3cnc(Sc4ccnc(N)c4Cl)c(N)n3)CC2)C1N	1920	1120	< 31.6	< 31.6	64.6	67.3	73.2	66	37.6	53.7	48.5	51.1	56.4	28.6	42	42.7	42	41	25	32.6	IC50 [35]: < 31.6 nM; viability, T/C [36]: 3.49%; viability, T/C [37]: 1.66%; viability, T/C [38]: 0.76%; viability, T/C [31]: 33.3%; viability, T/C [32]: 30.8%; viability, T/C [33]: 25.9%; viability, T/C [34]: 15.6%; viability, T/C [39]: 0.57%; viability, T/C [40]: 23.6%; viability, T/C [41]: 28.6%; viability, T/C [42]: 23.7%; viability, T/C [43]: 25%; viability, T/C [44]: 15.4%; viability, T/C [45]: 0.27%
CNCc1ccccc1-c1csc(C(C)Nc2nc(C)nc3cc(OC)c(OC)cc23)c1 (stereo not given)																					viability, T/C (compound 0.1 µM): 85.7% [middle of 17 runs]; viability, T/C (compound 0.316 µM): 77.5% [middle of 17 runs]; viability, T/C (compound 10 µM): 1.07% [middle of 17 runs]; IC50 (compound alone, run of 07/19/2021): 1.43 µM [middle of 5 runs]; IC50 (compound alone, run of 07/26/2021): 1.48 µM [middle of 5 runs]
CC1COCCN1c1cc(-c2ccnn2C)c2ccnc(-c3ccn[nH]3)c2n1 (stereo not given) + COc1cc2nc(C)nc(NC(C)c3cc(N)cc(C(F)(F)F)c3)c2cc1OC1CCOC1	13	20.7	15.4	13.2	3.7	2.44	3.52	4.74	4.39	31.4	9.52	6.32	5.51	5.8	30.1	10.6	5.67	7.04	4.67	25.2	IC50 [35]: < 10 nM; viability, T/C [11]: 63.9%; viability, T/C [17]: 81.8%; viability, T/C [23]: 62.1%; viability, T/C [29]: 57.9%; viability, T/C [31]: 6.64%; viability, T/C [32]: 3.75%; viability, T/C [33]: 3.28%; viability, T/C [34]: 3.79%; viability, T/C (second compound 10 µM, first compound 0.01 µM): 46.3%; viability, T/C [40]: 15.9%; viability, T/C [41]: 1.79%; viability, T/C [42]: 2.06%; viability, T/C [43]: 1.48%; viability, T/C [44]: 0.91%
